Test results taken from paper PMC12457078, “Inhibition of soluble epoxide hydrolase in endotoxin induced pig lung injury” (Frontiers in Pharmacology, 2025).
Several values for one entry are separate records, joined by “and”; a condition that tells them apart may be missing. Identical values can stand only once.

Tested on: sEH
Test: oxylipin analysis, epoxide/diol ratios (target engagement)
Assay type: in vivo, pig
Set-up: 14,15-DiHETE: unit not given beside the values; 12,13-DiHOME / 9,10-DiHODE / 11,12-DiHETrE / 14,15-DiHETrE / 10,11-DiHDPE / 19,20-DiHDPE / 13-HODE / 5-HETE / 11-HETE / 12-HETE / 5-HEPE / 9(10)-EpOME / 12(13)-EpOME / EKODE / 11(12)-EpETE: unit not given here
Settings: for 9,10,13-TriHOME sample concentration / 9,12,13-TriHOME sample concentration: bad chromatography; for 14,15-DiHETE: high blanks
Protocol: All animals were monitored with pulse oximetry, heart rate, ECG, systemic arterial blood pressure (ABP), pulmonary arterial pressure (PAP), central venous pressure (CVP) temperature, tidal volumes, respiratory rate and end tidal carbon dioxide. At baseline, and at 3 h, 6 h and at the end of the experiment, pulmonary capillary wedge pressure (PCWP) was measured together with arterial and venous blood gas analyses, as well as cardiac output calculations. Routine chemistry, including creatinine, bilirubin, glucose, electrolytes were collected at baseline and at the end of the experiment (Vetscan VS2®, Abaxis, Griesheim, Germany). Blood samples for measurement of AEPU plasma concentrations, as well as oxylipins (i.e., EpETrEs and their DiHETrE corresponding diols as well as related compounds with other polyunsaturated fatty acid precursors), were collected at baseline, 6 h and at the end of the experiment.
This meant nine subjects in each group to achieve 90% power of detecting a difference of this size given α = 0.05. Anticipating that not all experiments would reach completion, we used a sample size of 22. The results were analyzed using SPSS Statistics, version 24 (IBM Corp., Armonk, N.Y., United States). Normality was examined with the Shapiro-Wilk test, together with examination of histograms of data. Continuous variables were compared using Student’s t-test or Mann Whitney U test, as appropriate. Categorical variables were compared using Fischer’s exact test. Statistical significance was set at α < 0.05. Oxylipins with at least 80% of observations above limit of detection at both timepoints were included in pairwise comparisons of ratios and fold-change evaluations where observations below limit of detection (LOD) were substituted with 0.5 x LOD.

[1] = Time (h) 0, single pigs of sEH-i group
[2] = Time (h) 6, single pigs of sEH-i group
[3] = animal 20, time 6, sample Schwein36
[4] = animal 22, time 0, sample Schwein37
[5] = animal 22, time 6, sample Schwein38

## CCOCCOCCOCCCCCNC(=O)NC12CC3CC(CC(C3)C1)C2 [sEH-i]
[1]
  5(6)-EpETrE sample concentration: <LOD
  5,6-DiHETrE sample concentration: <LOD
  7(8)-EpDPE sample concentration: <LOD
  7,8-DiHDPE sample concentration: <LOD
  8(9)-EpETE sample concentration: <LOD
  8(9)-EpETrE sample concentration: <LOD
  8,9-DiHETE sample concentration: <LOD
  9-HETE sample concentration: <LOD
  9-oxo-ODE sample concentration: <LOD
  10(11)-EpDPE sample concentration: <LOD
  11(12)-EpETE sample concentration: 0.1209 pmol/mL and 0.141 pmol/mL and 0.08872 pmol/mL
  13(14)-EpDPE sample concentration: <LOD
  14(15)-EpETE sample concentration: <LOD
  15-HEPE sample concentration: <LOD
  16(17)-EpDPE sample concentration: <LOD
  17(18)-EpETE sample concentration: <LOD
  17-HDoHE sample concentration: <LOD
  19(20)-EpDPE sample concentration: <LOD
  LTB4 sample concentration: <LOD
  PGD2 sample concentration: <LOD
  PGE2 sample concentration: <LOD
  PGF2a sample concentration: <LOD
  Resolvin D1 sample concentration: <LOD
  Resolvin D2 sample concentration: <LOD
  TXB2 sample concentration: 0.17 pmol/mL and 0.31 pmol/mL
  9,10,13-TriHOME sample concentration: 4.78 pmol/mL and 2.75 pmol/mL and 3.27 pmol/mL
  9,12,13-TriHOME sample concentration: <LOD
[2]
  5(6)-EpETrE sample concentration: <LOD
  7(8)-EpDPE sample concentration: <LOD
  7,8-DiHDPE sample concentration: <LOD
  8(9)-EpETE sample concentration: <LOD
  8(9)-EpETrE sample concentration: <LOD
  9-HETE sample concentration: <LOD
  9-oxo-ODE sample concentration: <LOD
  10(11)-EpDPE sample concentration: <LOD
  11(12)-EpETE sample concentration: 0.1453 pmol/mL and 0.09993 pmol/mL and 0.1012 pmol/mL
  13(14)-EpDPE sample concentration: <LOD
  14(15)-EpETE sample concentration: <LOD
  15-HEPE sample concentration: <LOD
  16(17)-EpDPE sample concentration: <LOD
  17(18)-EpETE sample concentration: <LOD
  19(20)-EpDPE sample concentration: <LOD
  LTB4 sample concentration: <LOD
  PGD2 sample concentration: <LOD
  PGE2 sample concentration: <LOD
  Resolvin D1 sample concentration: <LOD
  Resolvin D2 sample concentration: <LOD
  TXB2 sample concentration: 1.20 pmol/mL and 2.15 pmol/mL and 2.09 pmol/mL
  9,10,13-TriHOME sample concentration: 4.27 pmol/mL and 3.59 pmol/mL and 2.73 pmol/mL
  9,12,13-TriHOME sample concentration: <LOD
[3]
  5(6)-EpETrE: <LOD
  5,6-DiHETrE: <LOD
  5-HEPE: <LOD
  5-HETE: <LOD
  5-oxo-ETE: 0.05
  7(8)-EpDPE: <LOD
  7,8-DiHDPE: <LOD
  8(9)-EpETE: <LOD
  8(9)-EpETrE: <LOD
  8,9-DiHETE: <LOD
  8,9-DiHETrE: 0.0443
  8-HETE: 0.0319
  9(10)-EpODE: <LOD
  9(10)-EpOME: 0.34
  9,10,13-TriHOME: 6.77
  9,10-DiHODE: 0.0155
  9,10-DiHOME: 0.21
  9,12,13-TriHOME: <LOD
  9-HETE: <LOD
  9-HODE: 1.17
  9-HOTrE: 0.2865
  9-oxo-ODE: <LOD
  10(11)-EpDPE: <LOD
  10,11-DiHDPE: <LOD
  11(12)-EpETE: 0.0834
  11(12)-EpETrE: 0.0219
  11,12-DiHETE: 0.0228
  11,12-DiHETrE: 0.45
  11-HETE: 0.12
  12(13)-EpODE: <LOD
  12(13)-EpOME: 0.3027
  12,13-DiHODE: <LOD
  12,13-DiHOME: 0.26
  12-HEPE: 0.0122
  12-HETE: 0.06381
  12-oxo-ETE: <LOD
  13(14)-EpDPE: <LOD
  13,14-DiHDPE: 0.04
  13-HODE: 4.33
  13-HOTrE: <LOD
  13-oxo-ODE: <LOD
  14(15)-EpETE: <LOD
  14(15)-EpETrE: <LOD
  14,15-DiHETrE: 0.58
  15(16)-EpODE: 0.25
  15,16-DiHODE: 2.37
  15-HEPE: <LOD
  15-HETE: 0.23
  15-HETrE: 0.10
  15-oxo-ETE: 0.0224
  16(17)-EpDPE: <LOD
  16,17-DiHDPE: 0.0373
  17(18)-EpETE: <LOD
  17,18-DiHETE: 0.77
  17-HDoHE: <LOD
  19(20)-EpDPE: <LOD
  19,20-DiHDPE: 0.44
  20-HETE: 0.0531
  EKODE: 0.20
  LTB4: 0.26
  PGD2: <LOD
  PGE2: <LOD
  PGF2a: 0.69
  Resolvin D1: <LOD
  Resolvin D2: <LOD
  TXB2: 2.57
  14,15-DiHETE: 0.2599
[4]
  5(6)-EpETrE: <LOD
  5,6-DiHETrE: <LOD
  5-HEPE: 0.21
  5-HETE: 0.81
  5-oxo-ETE: 0.30
  7(8)-EpDPE: <LOD
  7,8-DiHDPE: <LOD
  8(9)-EpETE: <LOD
  8(9)-EpETrE: <LOD
  8,9-DiHETE: 0.0568
  8,9-DiHETrE: 0.11
  8-HETE: 0.16
  9(10)-EpODE: 0.39
  9(10)-EpOME: 1.58
  9,10,13-TriHOME: 8.76
  9,10-DiHODE: 0.80
  9,10-DiHOME: 5.53
  9,12,13-TriHOME: 1.91
  9-HETE: <LOD
  9-HODE: 22.28
  9-HOTrE: 2.15
  9-oxo-ODE: <LOD
  10(11)-EpDPE: <LOD
  10,11-DiHDPE: 0.12
  11(12)-EpETE: 0.09412
  11(12)-EpETrE: 0.09
  11,12-DiHETE: 0.09
  11,12-DiHETrE: 1.52
  11-HETE: 0.33
  12(13)-EpODE: 0.93
  12(13)-EpOME: 3.18
  12,13-DiHODE: 1.66
  12,13-DiHOME: 19.80
  12-HEPE: 0.0755
  12-HETE: 0.69
  12-oxo-ETE: 4.85
  13(14)-EpDPE: <LOD
  13,14-DiHDPE: 0.22
  13-HODE: 80.31
  13-HOTrE: 4.84
  13-oxo-ODE: 6.02
  14(15)-EpETE: <LOD
  14(15)-EpETrE: 0.11
  14,15-DiHETrE: 3.44
  15(16)-EpODE: 36.18
  15,16-DiHODE: 74.86
  15-HEPE: <LOD
  15-HETE: 0.58
  15-HETrE: 0.39
  15-oxo-ETE: 0.15
  16(17)-EpDPE: <LOD
  16,17-DiHDPE: 0.63
  17(18)-EpETE: <LOD
  17,18-DiHETE: 3.51
  17-HDoHE: 0.47
  19(20)-EpDPE: 0.29
  19,20-DiHDPE: 4.63
  20-HETE: 0.35
  EKODE: 0.67
  LTB4: <LOD
  PGD2: 0.04
  PGE2: 0.0328
  PGF2a: 0.19
  Resolvin D1: <LOD
  Resolvin D2: <LOD
  TXB2: 0.22
  14,15-DiHETE: 0.2458
[5]
  5(6)-EpETrE: <LOD
  5,6-DiHETrE: <LOD
  5-HEPE: 0.03
  5-HETE: 0.2075
  5-oxo-ETE: 0.12
  7(8)-EpDPE: <LOD
  7,8-DiHDPE: <LOD
  8(9)-EpETE: <LOD
